Consider 2 molecules from article PMC6017736, “Indole-3-Carbonitriles as DYRK1A Inhibitors by Fragment-Based Drug Design” (Molecules : A Journal of Synthetic Chemistry and Natural …, 2018).

Some results are limits rather than exact numbers.

A word on the inhibition: it is the drop in the measured response relative to a control, in per cent. One may read the IC50 as the concentration at which inhibition is half-maximal. What is called viability is a read-out of living cells in per cent, often relative to untreated cells.

The target in one data set is T1, DYRK3 (Homo sapiens, UniProt O43781).
T1 sequence (O43781 1-588): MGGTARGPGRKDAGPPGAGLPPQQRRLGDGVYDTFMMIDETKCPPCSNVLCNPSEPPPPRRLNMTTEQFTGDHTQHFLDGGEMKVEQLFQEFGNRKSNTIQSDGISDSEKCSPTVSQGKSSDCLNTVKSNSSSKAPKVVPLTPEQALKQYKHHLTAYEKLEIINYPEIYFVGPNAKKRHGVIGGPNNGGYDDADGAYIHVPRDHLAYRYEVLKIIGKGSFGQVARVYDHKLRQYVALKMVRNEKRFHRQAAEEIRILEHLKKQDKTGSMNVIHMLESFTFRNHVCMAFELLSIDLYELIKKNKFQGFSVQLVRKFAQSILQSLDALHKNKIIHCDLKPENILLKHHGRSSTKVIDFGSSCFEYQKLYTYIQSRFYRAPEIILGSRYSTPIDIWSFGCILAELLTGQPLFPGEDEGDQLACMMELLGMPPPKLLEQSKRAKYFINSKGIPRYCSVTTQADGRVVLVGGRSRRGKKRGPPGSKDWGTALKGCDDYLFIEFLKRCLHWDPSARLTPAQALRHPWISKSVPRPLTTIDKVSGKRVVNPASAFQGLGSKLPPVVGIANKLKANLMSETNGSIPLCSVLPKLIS
In words: Protein kinase assay ([γ-33P]-ATP, RS peptide substrate), DYRK3. It is filed as biochemical. The note with it: 10 µM compound; read-out: Inhibition at 10 µM DYRK3 (class symbol). On the procedure:
(§1) DYRK1A, 1B, 2, 3 (human, recombinant, expressed in E. coli as GST fusion proteins) and CLK1, 2, 3, and 4 (mouse, recombinant, expressed in E. coli as GST fusion proteins) were assayed as described for GSK-3 in Buffer A (supplemented extemporaneously with 0.15 mg BSA/mL + 1 mM DTT) with 1 µg of RS peptide ([…]) as a substrate.

A further data set concerns the target CLK1 (Mus musculus, UniProt P22518). In words: Protein kinase assay ([γ-33P]-ATP, RS peptide substrate), CLK1. It is filed as biochemical. As to conditions: 15 µM ATP. On the procedure:
as §1

A further data set addresses CLK3 (Mus musculus, UniProt O35492). In words: Protein kinase assay ([γ-33P]-ATP, RS peptide substrate), CLK3. In kind it is biochemical. As to conditions: 10 µM compound; read-out: Inhibition at 10 µM CLK3 (class symbol). On the procedure: as §1
In a further data set the target is CLK2 (Mus musculus, UniProt O35491). In words: Protein kinase assay ([γ-33P]-ATP, RS peptide substrate), CLK2. The note with it: 15 µM ATP. It is filed as biochemical. The procedure: as §1
CLK2, sequence (O35491 whole entry): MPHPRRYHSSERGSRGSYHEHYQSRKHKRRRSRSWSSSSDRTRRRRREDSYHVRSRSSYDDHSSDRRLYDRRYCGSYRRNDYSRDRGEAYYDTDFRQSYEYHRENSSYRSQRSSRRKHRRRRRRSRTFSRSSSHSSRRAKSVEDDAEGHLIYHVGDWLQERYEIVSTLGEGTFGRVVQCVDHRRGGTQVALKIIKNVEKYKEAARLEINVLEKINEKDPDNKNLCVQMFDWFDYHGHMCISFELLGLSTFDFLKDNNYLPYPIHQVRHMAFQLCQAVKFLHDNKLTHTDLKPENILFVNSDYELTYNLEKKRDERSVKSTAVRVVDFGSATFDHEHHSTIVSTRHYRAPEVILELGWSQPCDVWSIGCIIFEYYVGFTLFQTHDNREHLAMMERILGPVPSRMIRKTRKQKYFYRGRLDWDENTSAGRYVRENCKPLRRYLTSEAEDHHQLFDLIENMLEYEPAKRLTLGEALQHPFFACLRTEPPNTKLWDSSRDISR
Data set [1] in a line: Kinetic solubility, laser nephelometry. In kind it is physicochemical. The note with it: phosphate buffer pH 7.4, nephelometry. On the procedure: The kinetic solubility was determined using laser nephelometry. A stock solution of the test compounds in DMSO was prepared and further diluted with DMSO to achieve a dilution series of 8–12 solutions with different concentrations. The DMSO solutions (2 µL) were placed in a row on a 96-well plate and diluted with aqueous phosphate buffer pH 7.4 (198 µL). The well plate was scanned by a nephelometer (Nephelostar Plus, BMG Labtech, Ortenberg, Germany). Unsolved particles scatter the laser light which is detected by the nephelometer. The intensity of the scattered light is proportional to the particle concentration in the suspension. The intensity of the scattered light was plotted versus the concentration to obtain a kick off curve. The concentration at which the compounds began to precipitate was directly read out from the kick off curve.

Data set [2] has as its system DYRK1A (phosphorylation of T434 in SF3B1) in HeLa cells. In words: Inhibition of endogenous DYRK1A activity in HeLa cells (phosphorylation of T434 in GFP-SF3B1-NT, Western blot). In kind it is cell-based. As to conditions: Homo sapiens; HeLa cells expressing GFP-SF3B1-NT, 18 h; read-out: IC50 inhibition of endogenous DYRK1A activity in HeLa cells (pT434 SF3B1).
A short description of data set [3]: Thermodynamic solubility, shake-flask method with HPLC quantification. In kind it is physicochemical. As to conditions: phosphate buffer pH 7.4, 25 °C. The procedure: For solubility assays an aqueous phosphate buffer pH 7.4 was used. The buffer was prepared by dissolving Na2HPO4 × 2 H2O (298 mg), KH2PO4 (19 mg) and NaCl (800 mg) in water (100 mL). The pH was adjusted to 7.4 by addition of hydrochloric acid. The thermodynamic solubility was determined using a shake-flask method with quantification by a HPLC method. The test compounds (500 µg) were incubated with aqueous phosphate buffer pH 7.4 (400 µL) in sealed Whatman MiniUniPrep vials (GE Healthcare, Freiburg, Germany). The mixtures were shaken at 25 °C and 400 rpm for 24–96 h (IKA KS 3000 ic control, IKA-Werke, Staufen, Germany). After 24 h, 48 h and 72 h, the mixtures were visually inspected for remaining solids and the solids were filtered off. The concentrations in the resulting saturated solutions were quantified by isocratic HPLC using calibration with external standard. If equilibrium was not reached after 72 h, solubility of a further sample was determined after 96 h. For calibration, a stock solution of 10 mM of the test compounds in DMSO was prepared and the stock solution was diluted with ACN to suitable concentrations. The AUC at the wavelength maxima was used for quantification.

Data set [4] concerns the target DYRK1B (Homo sapiens, UniProt Q9Y463). In words: Protein kinase assay ([γ-33P]-ATP, RS peptide substrate), DYRK1B. In kind it is biochemical. The note with it: 15 µM ATP; read-out: IC50 DYRK 1B. The procedure:
as §1

The nature of data set [5]: Cytotoxicity, cell viability by tetrazolium dye assay (XTT assay). It is filed as cell-based. As to conditions: human, HeLa cells, read-out: Viability of treated HeLa cells relative to control cells. The procedure: To evaluate the applicability of the 2-substituted indole-3-carbonitrile compounds in cell culture experiments, we assessed toxicity of 6f, 6h, 6s and 13b on HeLa cells by viability assays (Table 4).
The inhibitors were added to the cultured cells from stock solutions in DMSO to the desired final concentration. For cytotoxicity assays, HeLa cells were grown in 96-well plates (20,000–30,000 cells per well) and incubated with the test compounds for 3 days before cell viability was evaluated with the help of a tetrazolium dye assay (XTT assay, AppliChem GmbH, Darmstadt, Germany).
Background: Tetrazolium assays rely on reduction of a dye to a coloured formazan, in cell work by metabolically active cells.

Another data set deals with CLK4 (Mus musculus, UniProt O35493). In words: Protein kinase assay ([γ-33P]-ATP, RS peptide substrate), CLK4. As to conditions: 15 µM ATP. It is filed as biochemical. On the procedure:
as §1

The target of another data set is GSK-3. In words: Protein kinase assay ([γ-33P]-ATP, GS-1 substrate), GSK-3. The note with it: read-out: IC50 GSK3; 15 µM ATP.
In data set [6] the target is T2, DYRK1A (Homo sapiens, UniProt Q13627). In words: Protein kinase assay ([γ-33P]-ATP, RS peptide substrate), DYRK1A. In kind it is biochemical. As to conditions: 15 µM ATP; read-out: IC50 DYRK 1A.
The target in data set [7] is T2, DYRK1A. In words: Ligand-lipophilicity efficiency (pIC50 minus calculated logP). On the procedure: All new compounds were evaluated based on their physicochemical properties regarding Lipinski’s rule of five and the ligand-lipophilicity efficiency (LLE). Both concepts are used to assess the druglikeness of drug development candidates. […] LLE is calculated from pIC50 minus calculated logP [46].

The next data set has as its target T3, DYRK2 (Homo sapiens, UniProt Q92630).
T3 sequence (Q92630 1-601): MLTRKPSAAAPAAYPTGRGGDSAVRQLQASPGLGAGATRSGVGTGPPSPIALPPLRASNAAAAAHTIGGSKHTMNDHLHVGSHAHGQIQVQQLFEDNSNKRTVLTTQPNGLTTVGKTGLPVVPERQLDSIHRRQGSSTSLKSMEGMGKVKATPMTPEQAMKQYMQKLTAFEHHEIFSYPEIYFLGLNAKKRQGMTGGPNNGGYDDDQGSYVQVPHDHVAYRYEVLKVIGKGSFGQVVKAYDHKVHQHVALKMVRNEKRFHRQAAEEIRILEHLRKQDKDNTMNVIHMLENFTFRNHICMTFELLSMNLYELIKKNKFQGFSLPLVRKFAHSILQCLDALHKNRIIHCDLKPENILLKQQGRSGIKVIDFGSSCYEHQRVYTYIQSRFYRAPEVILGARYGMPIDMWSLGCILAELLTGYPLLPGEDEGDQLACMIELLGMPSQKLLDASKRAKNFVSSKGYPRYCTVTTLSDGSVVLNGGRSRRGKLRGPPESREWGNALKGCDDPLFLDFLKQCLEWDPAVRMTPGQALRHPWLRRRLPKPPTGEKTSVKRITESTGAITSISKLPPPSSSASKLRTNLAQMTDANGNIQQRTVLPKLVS
In words: Protein kinase assay ([γ-33P]-ATP, RS peptide substrate), DYRK2. The note with it: 10 µM compound; read-out: Inhibition at 10 µM DYRK2 (class symbol). In kind it is biochemical. On the procedure: as §1

Data set [8] has as its system DYRK1B. Set-up: method as in PMID 27766861, PMID 25268714, PMID 25264830. As to conditions: cited from earlier work.
Data set [9] relates to DYRK1A. As to conditions: read-out: IC50 DYRK1A; cited from earlier work.
For data set [10], the system named is DYRK1A-mediated tau phosphorylation and Aβ production. Set-up: method as in PMID 25556849. As to conditions: cellular; cited from earlier work.

CLK1, sequence (P22518 whole entry): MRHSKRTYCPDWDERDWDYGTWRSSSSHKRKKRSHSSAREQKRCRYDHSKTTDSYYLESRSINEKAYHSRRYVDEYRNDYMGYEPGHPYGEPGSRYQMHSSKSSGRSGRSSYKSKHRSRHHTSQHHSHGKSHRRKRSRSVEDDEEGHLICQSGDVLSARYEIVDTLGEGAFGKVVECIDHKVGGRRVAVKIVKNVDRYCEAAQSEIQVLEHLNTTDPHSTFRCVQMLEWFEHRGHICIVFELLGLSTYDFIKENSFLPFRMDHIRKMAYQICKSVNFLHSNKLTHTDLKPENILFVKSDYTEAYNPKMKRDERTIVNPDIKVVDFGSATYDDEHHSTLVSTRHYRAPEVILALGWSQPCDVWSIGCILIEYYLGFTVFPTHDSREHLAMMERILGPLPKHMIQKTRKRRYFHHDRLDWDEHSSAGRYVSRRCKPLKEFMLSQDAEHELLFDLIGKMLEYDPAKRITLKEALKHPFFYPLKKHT
CLK4, sequence (O35493 whole entry): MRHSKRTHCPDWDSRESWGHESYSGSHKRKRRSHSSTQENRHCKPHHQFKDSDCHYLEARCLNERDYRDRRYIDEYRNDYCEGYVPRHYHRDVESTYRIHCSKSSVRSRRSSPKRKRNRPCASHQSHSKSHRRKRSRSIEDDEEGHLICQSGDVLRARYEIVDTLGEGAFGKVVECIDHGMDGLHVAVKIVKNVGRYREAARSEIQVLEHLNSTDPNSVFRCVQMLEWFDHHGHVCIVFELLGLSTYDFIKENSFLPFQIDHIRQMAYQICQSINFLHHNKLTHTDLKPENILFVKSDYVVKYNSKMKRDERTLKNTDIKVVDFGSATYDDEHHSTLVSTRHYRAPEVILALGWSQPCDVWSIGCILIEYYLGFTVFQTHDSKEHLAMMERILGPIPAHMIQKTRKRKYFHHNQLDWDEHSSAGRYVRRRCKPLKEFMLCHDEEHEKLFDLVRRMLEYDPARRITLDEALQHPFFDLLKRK
CLK3, sequence (O35492 whole entry): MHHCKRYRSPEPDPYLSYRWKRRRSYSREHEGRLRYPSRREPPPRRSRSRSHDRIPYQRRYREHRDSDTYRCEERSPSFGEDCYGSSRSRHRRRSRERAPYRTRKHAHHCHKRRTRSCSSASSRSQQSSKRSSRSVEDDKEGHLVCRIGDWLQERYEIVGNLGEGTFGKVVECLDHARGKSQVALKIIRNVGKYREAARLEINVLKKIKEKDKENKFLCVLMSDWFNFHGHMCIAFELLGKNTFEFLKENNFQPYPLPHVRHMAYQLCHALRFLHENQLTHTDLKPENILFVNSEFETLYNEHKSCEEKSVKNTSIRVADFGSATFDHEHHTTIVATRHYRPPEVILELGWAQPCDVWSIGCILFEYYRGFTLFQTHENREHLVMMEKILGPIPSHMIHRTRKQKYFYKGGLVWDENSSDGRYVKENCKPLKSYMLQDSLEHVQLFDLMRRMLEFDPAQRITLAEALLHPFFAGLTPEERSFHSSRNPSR
DYRK1B, sequence (Q9Y463 whole entry): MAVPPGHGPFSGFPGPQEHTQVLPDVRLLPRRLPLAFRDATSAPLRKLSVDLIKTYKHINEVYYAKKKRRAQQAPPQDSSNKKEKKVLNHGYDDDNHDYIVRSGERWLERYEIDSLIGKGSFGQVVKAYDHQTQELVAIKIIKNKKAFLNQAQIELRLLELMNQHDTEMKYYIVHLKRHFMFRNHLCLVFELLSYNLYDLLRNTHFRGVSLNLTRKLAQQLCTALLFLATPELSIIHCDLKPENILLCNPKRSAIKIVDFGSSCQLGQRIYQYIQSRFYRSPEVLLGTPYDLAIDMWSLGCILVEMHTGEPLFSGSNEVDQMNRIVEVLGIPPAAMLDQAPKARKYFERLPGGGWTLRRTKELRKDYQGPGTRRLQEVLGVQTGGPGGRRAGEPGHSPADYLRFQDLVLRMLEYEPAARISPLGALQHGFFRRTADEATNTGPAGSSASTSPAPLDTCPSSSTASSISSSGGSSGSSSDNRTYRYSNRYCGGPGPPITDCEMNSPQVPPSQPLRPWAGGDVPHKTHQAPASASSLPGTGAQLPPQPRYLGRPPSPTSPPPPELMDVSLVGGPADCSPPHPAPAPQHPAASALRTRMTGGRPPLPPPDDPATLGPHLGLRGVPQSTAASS

Turning to `N#Cc1c(C2CCCC2)[nH]c2c(I)cccc12` [Compound 6s, 2-Cyclopentyl-7-iodo-1H-indole-3-carbonitrile], the inhibition at 10 µM at DYRK3, at CLK3 and at DYRK2 was below 20% throughout. The IC50 against CLK1 was 0.12 µM; against CLK2, 1 µM; in data set [2], 0.52 µM; on DYRK1B [4] it was 0.6 µM; against CLK4, 0.1 µM; at GSK-3, above 10 µM. Besides, the IC50 at DYRK1A [6] came to 0.07 µM. In [1], the “Sexp., kin., pH 7.4” value is recorded as 16.2 (15.2–17.3) µM. Further, in data set [3], the “Sexp., therm., pH 7.4” value was below 0.5 µM. In addition, the viability at 3 days, 1 µM in [5] (1 µM) amounted to 99%. Further, the viability at 3 days, 3 µM in [5] (3 µM) worked out at 100%. Besides, the viability at 3 days, 10 µM in data set [5] (10 µM) turned out to be 82%. For the same molecule, the LLE on DYRK1A [7] (Table S2) and at DYRK1A [7] (pIC50 (DYRK1A) minus calculated logP) was 2.78 throughout.
With `COC(=N)c1nc2ccc3ncnc(Nc4ccc(OC)cc4F)c3c2s1` [EHT 5372], the results for the IC50 (in the data set on DYRK1B [8]; in the data set on DYRK1A [9]; in data set [10]) were […], 0.00022 µM and 1.06 to 1.17 µM, respectively.
